We go through 10 compounds from US7517874B2 (priority 2007, dated 2009).

As usually defined, the EC50 is the concentration that produces a half-maximal response.

Experiment [1] concerns the target human CB1 receptor (hCB1) (Homo sapiens, UniProt P21554). Nature of the experiment: cell-based. Type of experiment: cell-based. In short, it runs like this: (§1)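 Readout: LANCE TR-FRET cAMP, back-calculated from a concurrent standard curve and scaled between forskolin-only and forskolin + 1 μM CP55,940 wells. EC50 and intrinsic activity came from four-parameter fits.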

The target of the next experiment is T1, rat CB2 receptor (rCB2) (Rattus norvegicus, UniProt Q9QZN9).
T1 sequence (Q9QZN9 1-360): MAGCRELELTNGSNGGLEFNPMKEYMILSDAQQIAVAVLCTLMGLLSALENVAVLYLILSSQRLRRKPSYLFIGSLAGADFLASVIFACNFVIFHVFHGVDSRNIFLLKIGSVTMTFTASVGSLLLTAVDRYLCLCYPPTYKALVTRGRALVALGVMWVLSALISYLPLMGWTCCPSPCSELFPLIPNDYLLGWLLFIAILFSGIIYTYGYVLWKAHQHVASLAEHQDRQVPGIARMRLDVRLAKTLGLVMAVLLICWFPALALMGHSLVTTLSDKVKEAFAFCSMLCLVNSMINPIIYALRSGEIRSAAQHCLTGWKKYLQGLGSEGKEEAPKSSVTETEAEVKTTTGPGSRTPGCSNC
Nature of the experiment: cell-based. Type of experiment: cell-based. The following applies: for +/− RCB2: agonist or inverse agonist at rCB2. In a few lines:
as §1

Structures are written as SMILES. Where two headings read alike, the source gives them in different places.

Sequence of human CB1 receptor (hCB1) (P21554 whole entry): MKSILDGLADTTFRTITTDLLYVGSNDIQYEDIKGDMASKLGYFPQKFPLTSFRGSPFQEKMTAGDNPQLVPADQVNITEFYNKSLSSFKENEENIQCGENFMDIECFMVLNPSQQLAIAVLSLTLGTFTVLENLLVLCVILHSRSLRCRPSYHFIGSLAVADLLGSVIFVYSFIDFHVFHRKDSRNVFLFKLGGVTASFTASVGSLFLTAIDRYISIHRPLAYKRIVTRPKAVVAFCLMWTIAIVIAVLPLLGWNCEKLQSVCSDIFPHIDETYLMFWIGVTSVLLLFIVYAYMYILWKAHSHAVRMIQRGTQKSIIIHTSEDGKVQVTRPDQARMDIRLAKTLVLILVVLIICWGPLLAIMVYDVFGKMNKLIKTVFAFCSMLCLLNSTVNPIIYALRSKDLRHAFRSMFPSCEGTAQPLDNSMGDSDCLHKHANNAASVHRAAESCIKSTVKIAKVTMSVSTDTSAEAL

With `CNC(=O)[C@@H](NC(=O)c1nc(-c2ccccc2)n2c1CN(S(=O)(=O)c1cccc(F)c1)CC2)C(C)(C)C` [Compound 99, (S)-N-(3,3-dimethyl-1-(methylamino)-1-oxobutan-2-yl)-7-(3-fluorophenylsulfonyl)-3-phenyl-5,6,7,8-tetrahydroimidazo[1,5-a]pyrazine-1-carboxamide], the EC50 in experiment [1] was above 10000 nM. At rat CB2 receptor (rCB2), the “+/− RCB2” value is given as “−”.

Consider `CNC(=O)[C@@H](NC(=O)c1nc(-c2ccccc2)n2c1CN(Cc1nccs1)CC2)C(C)(C)C` [Compound 72, (S)-N-(3,3-dimethyl-1-(methylamino)-1-oxobutan-2-yl)-3-phenyl-7-(thiazol-2-ylmethyl)-5,6,7,8-tetrahydroimidazo[1,5-a]pyrazine-1-carboxamide], for which the EC50 (in experiment [1]; at rat CB2 receptor (rCB2)) was above 10000 nM in each case.

Compound `CNC(=O)[C@@H](NC(=O)c1nc(-c2ccccc2)n2c1CN(C(=O)OC(C)(C)C)CC2)C(C)(C)C` [Compound 1, (S)-tert-butyl 1-(3,3-dimethyl-1-(methylamino)-1-oxobutan-2-ylcarbamoyl)-3-phenyl-5,6-dihydroimidazo[1,5-a]pyrazine-7(8H)-carboxylate] returned an EC50 in experiment [1] above 10000 nM. Moreover, the “+/− RCB2” value at rat CB2 receptor (rCB2) is reported as “−”.

In the case of `CNC(=O)[C@@H](NC(=O)c1nc(-c2ccc(OC)cc2C)n2c1CN(C)CCC2)C(C)(C)C` [Compound 343, (S)-N-(3,3-dimethyl-1-(methylamino)-1-oxobutan-2-yl)-3-(4-methoxy-2-methylphenyl)-8-methyl-6,7,8,9-tetrahydro-5H-imidazo[1,5-a][1,4]diazepine-1-carboxamide], the EC50 (in experiment [1]; on rat CB2 receptor (rCB2)) was above 10000 nM in each case.

`CN1CCCn2c(-c3ccccc3)nc(C(=O)N[C@H](C(=O)NC3CCC3)C(C)(C)C)c2C1` [Compound 480, (S)-N-(1-(cyclobutylamino)-3,3-dimethyl-1-oxobutan-2-yl)-8-methyl-3-phenyl-6,7,8,9-tetrahydro-5H-imidazo[1,5-a][1,4]diazepine-1-carboxamide]: the EC50 (in experiment [1]; at rat CB2 receptor (rCB2)) was above 10000 nM in each case.

`CN1CCn2c(-c3ccc(Cl)cc3F)nc(C(=O)N3CCN(c4ncccn4)CC3)c2C1` [Compound 211, (3-(4-chloro-2-fluorophenyl)-7-methyl-5,6,7,8-tetrahydroimidazo[1,5-a]pyrazin-1-yl)(4-(pyrimidin-2-yl)piperazin-1-yl)methanone]: the EC50 in experiment [1] (groups >100 nM-10 μM and >10 μM, cAMP, CHO-K1 hCB1, read-out: EC50 HCB1) is above 10000 nM; at rat CB2 receptor (rCB2) (groups >100 nM-10 μM and >10 μM, cAMP, CHO-K1 rCB2, read-out: EC50 RCB2) it was above 10000 nM.

With `CCS(=O)(=O)N1CCn2c(-c3ccccc3)nc(C(=O)NC3C4(C)CCC(C4)C3(C)C)c2C1` (centres unmarked) [Compound 112, 7-(ethylsulfonyl)-3-phenyl-N-(1,3,3-trimethylbicyclo[2.2.1]heptan-2-yl)-5,6,7,8-tetrahydroimidazo[1,5-a]pyrazine-1-carboxamide], the EC50 in experiment [1] is above 10000 nM. For the same compound, the “+/− RCB2” value at rat CB2 receptor (rCB2) is on record as “−”.

Take `CN1CCCn2c(-c3ccc(F)c(F)c3)nc(C(=O)N[C@H](C(=O)N(C)C)C(C)(C)C)c2C1` [Compound 561, (S)-3-(3,4-difluorophenyl)-N-(1-(dimethylamino)-3,3-dimethyl-1-oxobutan-2-yl)-8-methyl-6,7,8,9-tetrahydro-5H-imidazo[1,5-a][1,4]diazepine-1-carboxamide]: the “+/− HCB1” value in experiment [1] (agonist or inverse agonist at hCB1) is listed as “+”. Also, the “+/− RCB2” value on rat CB2 receptor (rCB2) is listed as “+”.

Take `CN1CCn2c(-c3ccc(Cl)cc3F)nc(C(=O)N3CCC(C(=O)N4CCOCC4)CC3)c2C1` [Compound 226, (3-(4-chloro-2-fluorophenyl)-7-methyl-5,6,7,8-tetrahydroimidazo[1,5-a]pyrazin-1-yl)(4-(morpholine-4-carbonyl)piperidin-1-yl)methanone]: the concentration giving a half-maximal response (EC50) (in experiment [1]; at rat CB2 receptor (rCB2)) was above 10000 nM each time.

Regarding `CCC(CO)NC(=O)c1nc(-c2ccccc2)n2c1CN(C)CC2` (centres unmarked) [Compound 232, N-(1-hydroxybutan-2-yl)-7-methyl-3-phenyl-5,6,7,8-tetrahydroimidazo[1,5-a]pyrazine-1-carboxamide], the EC50 (in experiment [1]; on rat CB2 receptor (rCB2)) was above 10000 nM each time.
